Source: US9714231B2, “Pyrrolidine GPR40 modulators” (BRISTOL-MYERS SQUIBB COMPANY, priority 2012, dated 2017)
pEC50: −log10 of the molar value. Counter-ions that a name gives are not always drawn.

Target: human GPR40 (Homo sapiens, UniProt O14842)
Test: FDSS-based intracellular calcium assay (Human GRP40 in vitro assay)
Format: cell-based
Set-up: 3xFLAG; expressed in transfected cells
Details: cells expressing GPR40, intracellular Ca2+ response, FDSS reader; read-out: hGPR40 EC50
Outline: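 GPR40-expressing cells, plated overnight in serum-free phenol red-free DMEM, loaded with Fluo-3 in HBSS with 1.7 mM probenecid for 30 min at 37° C. Compounds in DMSO, diluted in assay buffer, added as 3× solutions; intracellular Ca^2+ response read on FDSS.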

human GPR40, sequence (O14842 whole entry): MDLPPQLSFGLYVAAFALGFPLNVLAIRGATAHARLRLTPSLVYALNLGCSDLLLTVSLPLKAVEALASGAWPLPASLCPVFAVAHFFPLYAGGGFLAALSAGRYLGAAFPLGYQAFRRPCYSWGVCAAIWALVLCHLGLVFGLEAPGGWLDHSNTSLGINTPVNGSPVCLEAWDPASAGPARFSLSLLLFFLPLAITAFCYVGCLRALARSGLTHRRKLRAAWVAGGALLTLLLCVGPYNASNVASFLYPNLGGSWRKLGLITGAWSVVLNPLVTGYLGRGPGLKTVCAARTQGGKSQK

Row | Compound | pEC50
1 | COc1ccc(F)c(N2C[C@@H](C)[C@@H](Oc3ccc(N4C[C@H](OC)C[C@@H]4CC(=O)O)cc3)[C@@H](C)C2)c1 [Example 56, 2-((2R,4R)-1-(4-(((3S,4S,5R)-1-(2-Fluoro-5-methoxyphenyl)-3,5-dimethylpiperidin-4-yl)oxy)phenyl)-4-methoxypyrrolidin-2-yl)acetic acid, HCl] | 5.60
2 | COc1cc(N2CCC(Oc3ccc(N4C[C@H](OC)[C@@H](C)[C@@H]4CC(=O)O)nc3)C(C)C2)c(Cl)cn1 (stereo partly drawn) [Example 166, 2-((2S,3S,4R)-1-(5-(((3,4-trans)-1-(5-Chloro-2-methoxypyridin-4-yl)-3-methylpiperidin-4-yl)oxy)pyridin-2-yl)-4-methoxy-3-methylpyrrolidin-2-yl)acetic acid] | 6.38
3 | COCC1CN(c2cc(OC)ncc2Cl)CCC1Oc1ccc(N2C[C@H](C(F)(F)F)C[C@@H]2CC(=O)O)cc1 (single isomer, unassigned) [Example 172, Isomer 2, TFA] | 6.34
4 | COc1cc(N2CCC(Oc3ccc(N4C[C@H](OC)[C@@H](C)[C@@H]4CC(=O)O)cc3)C(C)C2)c(F)cc1F (single isomer, unassigned) [Example 169, Isomer 1] | 5.46
5 | CCCCOc1cc(N2C[C@H](OC)[C@@H](C)[C@@H]2CC(=O)O)cnc1OC1CCN(c2cc(OC)ncc2Cl)CC1C (stereo partly drawn) [Example 160, 2-((2S,3S,4R)-1-(5-Butoxy-6-(((3,4-trans)-1-(5-chloro-2-methoxypyridin-4-yl)-3-methylpiperidin-4-yl)oxy)pyridin-3-yl)-4-methoxy-3-methylpyrrolidin-2-yl)acetic acid] | 7.07
6 | COc1ccc(F)c(N2C[C@@H](C)[C@H](Oc3ccc(N4C[C@H](OC)C[C@@H]4CC(=O)O)cc3)[C@@H](C)C2)c1 [Example 55, 2-((2R,4R)-1-(4-(((3S,4R,5R)-1-(2-Fluoro-5-methoxyphenyl)-3,5-dimethylpiperidin-4-yl)oxy)phenyl)-4-methoxypyrrolidin-2-yl)acetic acid, HCl] | 6.01
7 | CCOc1ccc(F)c(N2CCC(Oc3ccc(N4C[C@H](Oc5ccc(Cl)cc5)C[C@@H]4CC(=O)O)cc3)CC2)c1 [Example 73, 2-((2R,4R)-4-(4-Chlorophenoxy)-1-(4-(1-(5-ethoxy-2-fluorophenyl)piperidin-4-yloxy)phenyl)pyrrolidin-2-yl)acetic acid] | 5.80
8 | COc1cc(N2CCC(Oc3ccc(N4C[C@H](OC)C[C@@H]4CC(=O)O)cc3)C(C)C2)c(Cl)cn1 (single isomer, unassigned) [Example 84, Isomer 2, TFA] | 6.74
9 | COc1ccc(F)c(N2CCC(Oc3ccc(N4C[C@H](OC)C[C@@H]4CC(=O)O)cc3)CC2C)c1 (single isomer, unassigned) [Example 13, Isomer 2, HCl] | 6.80
10 | COc1cc(N2CCC(Oc3ccc(N4C[C@H](C(F)(F)F)C[C@@H]4CC(=O)O)c(Cl)c3)C(C)C2)c(Cl)cn1 (stereo partly drawn) [Example 135, 2-((2R,4R)-1-(2-Chloro-4-(((3,4-trans)-1-(5-chloro-2-methoxypyridin-4-yl)-3-methylpiperidin-4-yl)oxy)phenyl)-4-(trifluoromethyl)pyrrolidin-2-yl)acetic acid, HCO2H] | 6.40
11 | COc1cc(N2CCC(Oc3ccc(N4C[C@H](C)[C@@H](C)[C@@H]4CC(=O)O)cn3)C(C)C2)c(Cl)cn1 (stereo partly drawn) [Example 106, 2-((2S,3R,4R)-1-(6-(((3,4-trans)-1-(5-Chloro-2-methoxypyridin-4-yl)-3-methylpiperidin-4-yl)oxy)pyridin-3-yl)-3,4-dimethylpyrrolidin-2-yl)acetic acid] | 6.77

Further lines, results first:

Row | pEC50 | Compound
12 | 6.54 | COc1ccc(F)c(N2CCC(N(C)c3ccc(N4C[C@H](C(F)(F)F)C[C@@H]4CC(=O)O)cc3)CC2)c1 [Example 9, 2-((2R,4R)-1-(4-((1-(2-Fluoro-5-methoxyphenyl)piperidin-4-yl)(methyl)amino)phenyl)-4-(trifluoromethyl)pyrrolidin-2-yl)acetic acid, TFA]
13 | 5.77 | COc1ccc(F)c(N2CCC(Oc3ccc(N4C[C@H](OC)C[C@@H]4CC(=O)O)cc3)CC2)c1Cc1ccccc1 [Example 32, 2-((2R,4R)-1-(4-((1-(2-Benzyl-6-fluoro-3-methoxyphenyl)piperidin-4-yl)oxy)phenyl)-4-methoxypyrrolidin-2-yl)acetic acid, TFA]
14 | 6.03 | COc1ccc(F)c(N2CC[C@H](COc3ccc(N4C[C@H](C(F)(F)F)C[C@@H]4CC(=O)O)cc3)C2)c1 [Example 10, 2-((2R,4R)-1-(4-(((S)-1-(2-Fluoro-5-methoxyphenyl)pyrrolidin-3-yl)methoxy)phenyl)-4-(trifluoromethyl)pyrrolidin-2-yl)acetic acid, HCl]
15 | 6.30 | CCOc1ccc(F)c(N2CCC(Oc3ccc(N4C[C@H](C(F)(F)F)C[C@@H]4CC(=O)O)cc3)C(C)C2C)c1 (single isomer, unassigned) [Example 44, Isomer 1, HCl]
16 | 6.92 | CCCCCO[C@@H]1C[C@H](CC(=O)O)N(c2ccc(OC3CCN(c4cc(OCC)ccc4F)CC3)cc2)C1 [Example 103, 2-((2R,4R)-1-(4-((1-(5-Ethoxy-2-fluorophenyl)piperidin-4-yl)oxy)phenyl)-4-(pentyloxy)pyrrolidin-2-yl)acetic acid, TFA]
17 | 6.12 | O=C(O)C[C@H]1C[C@@H](C(F)(F)F)CN1c1ccc(OC2CCN(c3ccccc3F)CC2)cc1 [Example 20, 2-((2R,4R)-1-(4-((1-(2-Fluorophenyl)piperidin-4-yl)oxy)phenyl)-4-(trifluoromethyl)pyrrolidin-2-yl)acetic acid, TFA]
18 | 5.74 | CCOc1ccc(F)c(N2CCC(Oc3ccc(N4C[C@H](C(F)(F)F)C[C@@H]4CC(=O)O)cc3)C(CC(C)C)C2)c1 (single isomer, unassigned) [Example 35, Isomer 1, HCl]
19 | 6.19 | CCOc1ccc(F)c(N2CCC(Oc3ccc(N4C[C@@H](OCc5ccccc5)C[C@@H]4CC(=O)O)cc3)CC2)c1 [Example 46, 2-((2R,4S)-4-(Benzyloxy)-1-(4-((1-(5-ethoxy-2-fluorophenyl)piperidin-4-yl)oxy)phenyl)pyrrolidin-2-yl)acetic acid, HCl]
20 | 5.49 | COc1cc(N2CCC(Oc3ccc(N4C[C@H](OC)C[C@@H]4CC(=O)O)cc3)CC2)c(F)cc1Cc1ccccc1 [Example 23, 2-((2R,4R)-1-(4-((1-(4-Benzyl-2-fluoro-5-methoxyphenyl)piperidin-4-yl)oxy)phenyl)-4-methoxypyrrolidin-2-yl)acetic acid, TFA]
21 | 5.72 | CCOc1ccc(F)c(N2CCC(Oc3ccc(N4C[C@H](n5cnnn5)C[C@@H]4CC(=O)O)cc3)CC2)c1 [Example 45, 2-((2R,4R)-1-(4-((1-(5-Ethoxy-2-fluorophenyl)piperidin-4-yl)oxy)phenyl)-4-(1H-tetrazol-1-yl)pyrrolidin-2-yl)acetic acid, HCl]
22 | 6.36 | COc1cc(N2CCC(Oc3ccc(N4C[C@H](C(F)(F)F)C[C@@H]4CC(=O)O)cc3)C(C)C2)c(Cl)cn1 (single isomer, unassigned) [Example 27, Isomer 1, HCl]
23 | 5.39 | O=C(O)C[C@H]1C[C@@H](C(F)(F)F)CN1c1ccc(OC2CCN(c3cccc(OC(F)(F)F)c3)CC2)cc1 [Example 24, 2-((2R,4R)-1-(4-((1-(3-(Trifluoromethoxy)phenyl)piperidin-4-yl)oxy)phenyl)-4-(trifluoromethyl)pyrrolidin-2-yl)acetic acid, HCl]
